Assay results taken from article PMC8230704 (Journal of the American Chemical Society, 2021).
Where two headings read alike, the source gives them in different places.

Legend:
[1] = molecular target: T1, NDM-1 (Klebsiella pneumoniae, UniProt C7C422); assay: Challenge of fluorescent 4D:NDM-1 complex with inhibitors and chelators; type: binding
[2] = molecular target: NDM-15 Δ35 BL21 cells (Klebsiella pneumoniae, UniProt C7C422, A233V/M154L); assay: Confocal fluorescence imaging of 4D-treated live E. coli expressing Δ35 NDM-15; type: cell-based; settings: DPA up to 200 μM
[3] = molecular target: T1, NDM-1; assay: NDM-1 inhibition with chromacef substrate; type: biochemical
[4] = molecular target: Δ35 NDM-1 expressing BL21 (DE3) E. coli (Klebsiella pneumoniae, UniProt C7C422); assay: cell-based
[5] = molecular target: T1, NDM-1; settings: read-out: IC50 for purified NDM-1; cited from earlier work
[6] = read-out: Kd,Zn(II); cited from earlier work
[7] = test system: NDM-1; settings: substrate of NDM-1; cited from earlier work

c1ccc(CN(CCN(Cc2ccccn2)Cc2ccccn2)Cc2ccccn2)nc1 [TPEN, N,N,N′,N′-tetrakis(2-pyridinyl-methyl)-1,2-ethanediamine]
fluorescence after pre-incubation of NDM-1 with TPEN ([1]; 10 μM NDM-1 and 10 μM 4D, recovered upon excess ZnSO4): complete reduction of fluorescence
fluorescence turn-on after pre-incubation of NDM-1 with TPEN ([1]; 30 μM NDM-1 pre-incubated with TPEN, then 10 μM 4D): ~ 4 fold
fluorescence turn-on of 4D:NDM-1 after treatment ([1]; TPEN 50 μM, 10 μM ZnSO4, from 12-fold): 9.2 fold

O=C(O)c1cccc(C(=O)O)n1 [DPA, dipicolinic acid]
effect on fluorescence [2]: no effect on fluorescence
IC50 [3]: 154 µM
IC50 [4]: ~200 µM
fluorescence turn-on of 4D:NDM-1 after treatment ([1]; DPA 150 μM, 50 μM ZnSO4, from 17-fold maximum): 13 fold
IC50 [5]: 0.5 µM

O=C([O-])CN(CCN(CC(=O)O)CC(=O)O)CC(=O)[O-].[Ca+2] [CaEDTA, calcium EDTA]
Kd [6]: 0.001 µM

CC1=C(C(=O)O)N2C(=O)[C@@H](NC(=O)[C@H](N)c3ccccc3)[C@H]2SC1 [cephalexin]
Km [7]: 5.6 µM

chromacef
Km [7]: 0.66 ± 0.2 µM
